Source: US20240043386A1, “Modulators of the Cystic Fibrosis Transmembrane Conductance Regulator Protein and Methods of Use” (AbbVie Global Enterprises Ltd., priority 2021, published 2024)
Read-outs that look alike come from different tables or passages of the source.

Columns and labels:
F508del/F508del CFTR = target: T1, F508del/F508del CFTR (Homo sapiens, UniProt P13569, DEL508-508); test: Trans-Epithelial Current Clamp (TECC) assay using primary human bronchial epithelial cells; format: cell-based; conditions: for Emax (% Dual): maximum percent activity relative to positive control (co-corrector 0.15 μM + potentiator 0.45 μM = 100%), primary hBE cells F508del/F508del; for EC50: primary hBE cells homozygous F508del/F508del, test C2 corrector with co-corrector and potentiator, 18-24 hours at 37° C., equivalent CFTR current (IEQ)/AUC
T1 construct: cells isolated from CF patients with the homozygous mutation; endogenous in cells; host or cells: primary human bronchial epithelial (hBE) cells from CF patients homozygous for F508del
Method in brief: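 F508del/F508del primary hBE cells grown 35 days at air-liquid interface were treated basolaterally with C2 correctors plus fixed co-corrector and potentiator for 18-24 h at 37° C. TECC-24 current clamp at 36.5° C in HEPES-buffered F-12 Coon's, pH 7.4; equivalent current IEQ=VT/RT, plus AUC between forskolin peak and bumetanide.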

F508delCFTR = target: T2, F508delCFTR (Homo sapiens, UniProt P13569, DEL508-508); test: Cell Surface Expression-Horse Radish Peroxidase (CSE-HRP) assay in CFBE41o-F508delCFTR-HRP cells; format: cell-based; conditions: for EC50: CFBE41o-F508delCFTR-HRP cells, 18-24 hours at 33° C., luminescence
T2 construct: expressed in transfected cells; host or cells: CFBE41o- human lung-derived epithelial cell line, doxycycline-inducible expression
Method in brief: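 CFBE41o- cells expressing F508delCFTR with HRP in the fourth exofacial loop were doxycycline-induced (0.5 μg/mL) for 68–72 h, then exposed to correctors for 18–24 h at 33 °C, with or without 2 μM co-corrector. Surface HRP was read by luminol luminescence, and % activity was normalized to the on-plate positive control; EC50 came from a variable-slope sigmoidal fit (8 points, 3-fold dilution, 20 or 30 μM top).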

[1] = with co-corrector (2 μM), read-out: EC50 (with co-corrector)
[2] = without co-corrector, read-out: EC50 (without co-corrector)
[3] = without co-corrector, normalized to on-plate positive control corrector (2 μM)

T2 sequence (P13569 with tags, fused parts or gaps DEL508-508): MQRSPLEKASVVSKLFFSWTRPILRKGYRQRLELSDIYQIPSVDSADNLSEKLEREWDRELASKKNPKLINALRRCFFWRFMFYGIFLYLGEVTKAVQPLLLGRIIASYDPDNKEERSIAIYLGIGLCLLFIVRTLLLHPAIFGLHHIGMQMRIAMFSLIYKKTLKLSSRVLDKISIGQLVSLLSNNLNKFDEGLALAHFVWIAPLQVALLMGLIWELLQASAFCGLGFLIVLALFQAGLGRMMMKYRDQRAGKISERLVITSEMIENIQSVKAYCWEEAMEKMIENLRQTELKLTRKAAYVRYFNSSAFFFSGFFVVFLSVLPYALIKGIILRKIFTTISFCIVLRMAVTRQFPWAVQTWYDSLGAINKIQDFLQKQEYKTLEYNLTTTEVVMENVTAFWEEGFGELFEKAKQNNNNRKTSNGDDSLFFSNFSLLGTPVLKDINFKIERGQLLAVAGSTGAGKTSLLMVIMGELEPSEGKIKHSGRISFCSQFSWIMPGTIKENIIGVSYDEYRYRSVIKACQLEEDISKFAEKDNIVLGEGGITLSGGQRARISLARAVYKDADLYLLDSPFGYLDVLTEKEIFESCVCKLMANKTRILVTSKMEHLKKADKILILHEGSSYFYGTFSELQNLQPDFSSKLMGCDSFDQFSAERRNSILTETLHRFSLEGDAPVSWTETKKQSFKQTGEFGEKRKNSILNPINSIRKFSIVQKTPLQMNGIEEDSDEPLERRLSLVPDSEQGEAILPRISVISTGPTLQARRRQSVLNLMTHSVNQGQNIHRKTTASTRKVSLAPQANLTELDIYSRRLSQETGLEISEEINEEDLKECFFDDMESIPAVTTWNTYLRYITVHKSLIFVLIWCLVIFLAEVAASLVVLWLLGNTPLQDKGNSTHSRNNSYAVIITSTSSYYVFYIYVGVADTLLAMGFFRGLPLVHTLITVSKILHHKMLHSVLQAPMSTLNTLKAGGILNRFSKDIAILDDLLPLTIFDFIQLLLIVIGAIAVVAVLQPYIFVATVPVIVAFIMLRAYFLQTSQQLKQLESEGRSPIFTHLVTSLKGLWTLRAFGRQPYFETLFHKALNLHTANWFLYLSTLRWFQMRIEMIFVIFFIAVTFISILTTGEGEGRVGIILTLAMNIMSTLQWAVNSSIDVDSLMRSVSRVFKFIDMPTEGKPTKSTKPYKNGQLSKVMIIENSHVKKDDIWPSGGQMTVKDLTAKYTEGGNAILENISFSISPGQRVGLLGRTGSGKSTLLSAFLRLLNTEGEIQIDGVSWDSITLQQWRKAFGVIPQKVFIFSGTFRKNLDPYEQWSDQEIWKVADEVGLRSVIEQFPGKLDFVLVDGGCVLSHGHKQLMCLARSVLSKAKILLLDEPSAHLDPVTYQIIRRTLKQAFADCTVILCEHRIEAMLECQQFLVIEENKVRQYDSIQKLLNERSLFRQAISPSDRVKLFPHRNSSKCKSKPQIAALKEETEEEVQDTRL
T1 sequence (P13569 with tags, fused parts or gaps DEL508-508): as above

Emax (% Dual) (F508del/F508del CFTR) | EC50 (F508del/F508del CFTR) | EC50 (F508delCFTR; [1]) | EC50 (F508delCFTR; [2]) | Maximum % activity (without co-corrector) (F508delCFTR; [3]) | Maximum % activity (with co-corrector) (F508delCFTR; with co-corrector (2 μM), normalized to on-plate positive control corrector (2 μM)) | Structure (SMILES)
269 % Dual | 2.4 nM | 989 nM | 2140 nM | – | – | COc1ccc(C)cc1[C@]1(C(=O)NS(=O)(=O)c2cccc3nc(C)ccc23)C[C@@H]1c1cnc(OC)c(F)c1 [Example 76, (1S,2R)-2-(5-fluoro-6-methoxypyridin-3-yl)-1-(2-methoxy-5-methylphenyl)-N-(2-methylquinoline-5-sulfonyl)cyclopropane-1-carboxamide]
289 % Dual | 0.4 nM | 327 nM | 1660 nM | – | – | COc1ccc(C)cc1[C@]1(C(=O)NS(=O)(=O)c2cccc3nc(C)ccc23)C[C@@H]1c1cccc(C(F)F)n1 [Example 77, (1S,2S)-2-[6-(difluoromethyl)pyridin-2-yl]-1-(2-methoxy-5-methylphenyl)-N-(2-methylquinoline-5-sulfonyl)cyclopropane-1-carboxamide]
275 % Dual | 15.8 nM | 461 nM | 1320 nM | 925% | – | COc1ccc(C)cc1[C@]1(C(=O)NS(=O)(=O)c2cccc3nc(C)ccc23)C[C@@H]1c1cnc(OC)c(OC)n1 [Example 80, (1S,2S)-2-(5,6-dimethoxypyrazin-2-yl)-1-(2-methoxy-5-methylphenyl)-N-(2-methylquinoline-5-sulfonyl)cyclopropane-1-carboxamide]
173 % Dual | 94.4 nM | 3980 nM | 5780 nM | 476% | 876% | COc1ccc(C)cc1[C@]1(C(=O)NS(=O)(=O)c2cccc3nc(C)ccc23)C[C@@H]1c1ccc(C)nc1C [Example 81, (1S,2R)-2-(2,6-dimethylpyridin-3-yl)-1-(2-methoxy-5-methylphenyl)-N-(2-methylquinoline-5-sulfonyl)cyclopropane-1-carboxamide]
210 % Dual | 52.2 nM | 351 nM | 730 nM | 937% | – | COc1cnc([C@H]2C[C@@]2(C(=O)NS(=O)(=O)c2cccc3nc(C)ccc23)c2cc(C)ccc2OC)c(OC)n1 [Example 82, (1S,2S)-2-(3,5-dimethoxypyrazin-2-yl)-1-(2-methoxy-5-methylphenyl)-N-(2-methylquinoline-5-sulfonyl)cyclopropane-1-carboxamide]
215 % Dual | 17.5 nM | 945 nM | 1360 nM | – | – | COc1ccc(C)cc1[C@]1(C(=O)NS(=O)(=O)c2cccc3nc(C)ccc23)C[C@@H]1c1cc(F)cnc1OC [Example 84, (1S,2R)-2-(5-fluoro-2-methoxypyridin-3-yl)-1-(2-methoxy-5-methylphenyl)-N-(2-methylquinoline-5-sulfonyl)cyclopropane-1-carboxamide]
348 % Dual | 40.4 nM | 900 nM | 1720 nM | 812% | – | COCc1cccc([C@H]2C[C@@]2(C(=O)NS(=O)(=O)c2cccc3nc(C)ccc23)c2cc(C)ccc2OC)n1 [Example 90, (1S,2S)-1-(2-methoxy-5-methylphenyl)-2-[6-(methoxymethyl)pyridin-2-yl]-N-(2-methylquinoline-5-sulfonyl)cyclopropane-1-carboxamide]
256 % Dual | 7.8 nM | 990 nM | 1980 nM | – | – | COc1ccc(C)cc1[C@]1(C(=O)NS(=O)(=O)c2cccc3nc(C)ccc23)C[C@@H]1c1cccc(C)n1 [Example 96, (1S,2S)-1-(2-methoxy-5-methylphenyl)-2-(6-methylpyridin-2-yl)-N-(2-methylquinoline-5-sulfonyl)cyclopropane-1-carboxamide]
198 % Dual | 0.9 nM | 359 nM | 988 nM | – | – | COc1ccc(C)cc1[C@]1(C(=O)NS(=O)(=O)c2cccc3nc(C)ccc23)C[C@@H]1c1cccc(OC(C)C)n1 [Example 97, (1S,2S)-1-(2-methoxy-5-methylphenyl)-N-(2-methylquinoline-5-sulfonyl)-2-{6-[(propan-2-yl)oxy]pyridin-2-yl}cyclopropane-1-carboxamide]
397 % Dual | 32.7 nM | 825 nM | 2300 nM | – | – | COc1ccc(C)cc1[C@]1(C(=O)NS(=O)(=O)c2cccc3nc(C)ccc23)C[C@@H]1c1cnc(OC)c(Cl)c1 [Example 102, (1S,2R)-2-(5-chloro-6-methoxypyridin-3-yl)-1-(2-methoxy-5-methylphenyl)-N-(2-methylquinoline-5-sulfonyl)cyclopropane-1-carboxamide]
266 % Dual | 1.8 nM | 587 nM | 714 nM | 800% | – | COc1ccc(C)cc1[C@]1(C(=O)NS(=O)(=O)c2cccc3nc(C)ccc23)C[C@@H]1c1cnc(OC)c(C)c1 [Example 103, (1S,2R)-1-(2-methoxy-5-methylphenyl)-2-(6-methoxy-5-methylpyridin-3-yl)-N-(2-methylquinoline-5-sulfonyl)cyclopropane-1-carboxamide]
